The values below come from patent US6949583B2, “Aminoalkoxybenzoyl-benzofuran or benzothiophene derivatives, method of preparing same and compositions containing same” (Sanofi-Synthelabo, priority 2000, dated 2005).

Molecules are shown by their SMILES. Where a name gives a salt, the structure may show the parent alone.

One may read the melting point as the temperature of the solid-liquid transition.

`CCCCN(CCCC)COCc1ccc(C(=O)c2c(C(C)C)oc3ccc(C(=O)OC(C)C)cc23)cc1` (as salt: oxalate) gave a melting point of 106 to 108 °C.

In turn, `CCCCc1oc2ccc(C(=O)OC(C)C)cc2c1C(=O)c1cc(Cl)c(CCCN(CCCC)CCCC)c(Cl)c1` (as salt: oxalate) yielded a melting point of 87 to 89 °C.

Turning to `CCCCc1oc2ccc(C(=O)OC(C)C)cc2c1C(=O)c1cc(C)c(CCCN(CCCC)CCCC)c(C)c1` (as salt: oxalate), the melting point lay within 119 to 121 °C.

The compound `CCCCc1oc2ccc(C(=O)OC)cc2c1C(=O)c1ccc(CN(CCCC)CCCC)cc1` (as salt: oxalate) showed a melting point of 96 to 97 °C.

Compound `CCCCN(CCCC)CCCc1ccc(C(=O)c2c(CCC)oc3ccc(C(=O)OC(C)C)cc23)cc1` (as salt: oxalate) showed a melting point of 155 to 157 °C.

Compound `CCCCN(CCCC)CCCc1ccc(C(=O)c2c(CC(C)C)oc3ccc(C(=O)OC(C)C)cc23)cc1` (as salt: oxalate) yielded a melting point of 105 to 107 °C.

Compound `CCCCc1oc2ccc(C(=O)OC(C)C)cc2c1C(=O)c1ccc(COCCN(CCCC)CCCC)cc1` (as salt: oxalate) yielded a melting point of 73 °C.

With `CCCCc1oc2cc(C)c(C(=O)OC(C)C)cc2c1C(=O)c1ccc(CCCN(CC)CC)cc1` (as salt: oxalate), the melting point lay within 155 to 157 °C.

Take `CCCCc1oc2ccc(C(=O)OC(C)C)cc2c1C(=O)c1ccc(CN2CCN(CC)CC2)cc1` (as salt: oxalate): the melting point was in the range of 222 to 224 °C.

Take `CCCCc1oc2ccc(C(=O)OC(C)C)cc2c1C(=O)c1ccc(CN(CCCC)CCCC)cc1` (as salt: oxalate): the melting point was 107 to 108 °C.

As to `CCCCc1oc2ccc(C(=O)OC(C)C)cc2c1C(=O)c1ccc(C(C)(C)CCN(CCCC)CCCC)cc1` (as salt: oxalate), the melting point lay within 92 to 93 °C.

In the case of `CCCCc1oc2ccc(C(=O)OC(C)C)cc2c1C(=O)c1ccc(COCCCN(CCCC)CCCC)cc1` (as salt: oxalate), the melting point lay within 73 to 74 °C.

As for `CCCCN(CCCC)CCCc1ccc(C(=O)c2c(C3CCCCC3)oc3ccc(C(=O)OC(C)C)cc23)cc1` (as salt: oxalate), the melting point fell in the range of 124 to 126 °C.

Compound `CCCCc1oc2ccc(C(=O)OC(C)C)cc2c1C(=O)c1ccc([C@@H]([C@@H](C)O)N(CCCC)CCCC)cc1` (as salt: oxalate) yielded a melting point of 150 to 151 °C.

Compound `CCCCc1sc2ccc(C(=O)OC(C)C)cc2c1C(=O)c1ccc(CCCN(CCCC)CCCC)cc1` (as salt: oxalate) had a melting point of 86 to 89 °C.

`CCCCc1oc2ccc(C(=O)OC(C)C)cc2c1C(=O)c1ccc(CCCN(CCCC)CCCC)o1` (as salt: oxalate) gave a melting point of 75 to 78 °C.

Consider `CCCCc1oc2ccc(C(=O)OC(C)C)cc2c1C(=O)c1ccc(CCCN(CCCC)CCCC)s1` (as salt: oxalate), for which the melting point is 100 °C.

As for `CCCCCc1oc2ccc(C(=O)OC(C)C)cc2c1C(=O)c1ccc(CCCN(CCCC)CCCC)cc1` (as salt: oxalate), the melting point was 124 to 126 °C.

The compound `CCCCN(CCCC)CCCc1ccc(C(=O)c2c(CCCC(=O)OC)oc3ccc(C(=O)OC(C)C)cc23)cc1` (as salt: oxalate) registered a melting point of 105 °C.

`CCCCN(CCCC)CCCc1ccc(C(=O)c2c(CCC(=O)OC)oc3ccc(C(=O)OC(C)C)cc23)cc1` (as salt: oxalate): the melting point was in the range of 107 to 108 °C.

`CCCCc1oc2ccc(C(=O)OC(C)C)cc2c1C1(c2ccc(CCCN(CCCC)CCCC)cc2)OCCO1` (as salt: oxalate) showed a melting point of 106 to 108 °C.

With `CCCCc1oc2ccc(C(=O)OC)cc2c1C(=O)c1ccc(CC(O)CN(CCCC)CCCC)cc1` (stereo not shown) (as salt: oxalate), the melting point fell in the range of 128 to 130 °C.

Take `CCCCc1oc2ccc(C(=O)OC(C)C)cc2c1C(=O)c1cccc(CCCN(CCCC)CCCC)c1` (as salt: oxalate): the melting point is 87 to 90 °C.

As to `CCCCc1oc(C)c(C(=O)OCC)c1C(=O)c1ccc(CCCN(CCCC)CCCC)cc1` (as salt: oxalate), the melting point was in the range of 133 to 135 °C.

`CCCCc1oc2ccc(C(=O)OC(C)C)cc2c1C(=O)c1ccc([C@@H](O)[C@@H](C)N(CCCC)CCCC)cc1` (as salt: oxalate): the melting point fell in the range of 107 to 108 °C.

With `CCCCN(CCCC)CCCc1ccc(C(=O)c2c(C)oc3ccc(C(=O)OC(C)C)cc23)cc1` (as salt: oxalate), the melting point was 107 to 108 °C.

In turn, `CCCCc1oc2ccc(C(=O)OC(C)C)cc2c1C(=O)c1ccccc1CCCN(CCCC)CCCC` (as salt: oxalate) gave a melting point of 85 to 88 °C.

In the case of `CCCCc1oc2ccc(C(=O)OC)cc2c1C(=O)c1ccc(C(O)CN(CCCC)CCCC)cc1` (stereo not shown) (as salt: oxalate), the melting point lay in the range of 124 to 126 °C.

The compound `CCCCc1oc2ccc(C(=O)OC)cc2c1C(=O)c1ccc(CN2CCN(CC)CC2)cc1` (as salt: oxalate) yielded a melting point of 220 to 221 °C.

Consider `CCCCc1oc2ccc(C(=O)OC(C)C)cc2c1C(=O)c1ccc(C(O)CN(CCCC)CCCC)cc1` (stereo not shown) (as salt: oxalate), for which the melting point fell in the range of 134 to 135 °C.

In the case of `CCCCc1oc2ccc(C(=O)OC(C)C)cc2c1C(=O)c1ccc(CC(O)CN(CCCC)CCCC)cc1` (stereo not shown) (as salt: oxalate), the melting point was 90 to 91 °C.
